Assay results published in patent US20220168384A1, “Anti-Bacterial Combination Therapy” (McMaster University, priority 2019, published 2022).
Converted amounts (≈) assume the structure as drawn. Like-named read-outs stand apart in the source and are kept apart here.

How the values were obtained:
[1] = tested on: Acinetobacter baumannii clinical isolates; assay: Clinical isolates testing, A. baumannii; type: cell-based; conditions: 10:90
Method: (§1) Clinical isolates of P. aeruginosa and A. baumannii were inoculated from −80° C. stocks into 200 μL LB broth and grown with shaking at 200 rpm, 16 h, 37° C. in Nunc 96-well plates. The overnight cultures were subcultured (1:25 dilution) into 10:90 and grown with shaking at 200 rpm, 2 h, 37° C. Vehicle controls consisted of 4 μL of DMSO, 144 μL 10:90 and 2 μL of subculture. Sterile controls consisted of 4 μL of DMSO and 146 μL 10:90. […]. The final volume of each well was 150 μL and each checkerboard was repeated at least three times. Plates were incubated with shaking at 200 rpm, 16 h, 37° C. and OD600 was measured (Multiskan Go—Thermo Fisher Scientific). The results were plotted as percent of control (wells containing only DMSO) using Prism (GraphPad).
(§2) Clinical isolates were grown and tested as described in Example 1. Briefly, clinical isolates were inoculated from glycerol stocks stored at −80° C. into Nunc 96-well plates and grown overnight at 37° C., for 16 h with shaking in LB (200 rpm). Overnights were subcultured (1:25) into fresh 10:90 medium and grown for 2 h under the same growth conditions. Subcultures were diluted 1:75 in fresh 10:90. Compounds were diluted 1:75 to obtain the final concentration. DOXY and CLI were added at a final concentration of 1 μg/mL, CO was used at 2 μg/mL, TRO was used at 4 μg/mL, TS was used at 8.3 μg/mL, and DSX was used at 32 μg/mL. Vehicle and sterility controls were included. Plates were incubated overnight with the same conditions. The OD600 was read (Multiscan Go—Thermo Fisher Scientific), analyzed using Excel, and the data plotted using Prism (GraphPad).
(§3) Culture conditions, checkerboard assays using P. aeruginosa PA14 and dose-response assays were performed as described in Example 1. In addition to TS, other thiopeptides tested were siomycin A (SM), thiocillin I (TC), micrococcin P1 (MC), nosiheptide (NH), berninamycin A (BER), and geninthiocin A (GEN). For dose response assays of the combinations conducted in 10:90, DSX concentration was constant at 64 μg/mL.

[2] = tested on: P. aeruginosa clinical isolates; assay: Clinical isolates testing, P. aeruginosa; type: cell-based, Pseudomonas aeruginosa; conditions: Pseudomonas aeruginosa; approximately 1 in 10 of 96 clinical isolates; 10:90
Method: as §1, §2, §3

[3] = tested on: P. aeruginosa PA14 and Mar2xT7 transposon mutants; assay: MIC microbroth dilution assay, thiostrepton susceptibility of PA14 and mutants; type: cell-based, Pseudomonas aeruginosa; conditions: for MIC / IC50: Pseudomonas aeruginosa, VBMM; for IC50: read-out: ICCO
Method: MICs were determined with microbroth dilution assays in Nunc 96-well plates. Vehicle controls consisted of 1:75 dilutions of DMSO in 10:90 inoculated with PA14 or its mutants as described in “Growth Curves” above. Sterile controls consisted of 1:75 dilutions of DMSO in 10:90. Seven serially diluted concentrations of TS—with 17 μg/mL being the highest final concentration—was set up in triplicate. Tests were done with 1:75 dilutions of each TS concentration in 10:90 inoculated with PA14 or its mutants as described in Growth Curves. Plates were sealed to prevent evaporation and incubated with shaking at 200 rpm, 16 h, 37° C. The OD600 of the plates was read (Multiskan Go—Thermo Fisher Scientific) and used to calculate MIC. Growth is proportional to the darkness intensity whereas white indicates no observable growth. The final volume of each well was 150 μL and each experiment was repeated at least three times.
To identify the route of iron-limitation dependent TS entry into P. aeruginosa, the susceptibility of mutants from the ordered PA14 transposon library (15) that had insertions in genes encoding known siderophore receptors, as well as mutants with insertions in uncharacterized OM proteins with homology to siderophore receptors was tested. In VBMM, most mutants had MICs similar to those of the parental strain (Table 1). […]. P. aeruginosa encodes two type I pyoverdine receptors, FpvA and FpvB, with ˜39% amino acid identity (71% similarity). […]. When fpvA was deleted in the fpvB background, the double mutant had similar resistance levels to the fpvA single mutant (Table 1), but complementation of that mutant with fpvB on a low-copy number plasmid increased TS susceptibility (Table 1).

P. aeruginosa PA14 = assay: Checkerboards pinned to LB agar (bactericidal activity); type: cell-based, Pseudomonas aeruginosa; conditions: overnight 37° C.
Method: Checkerboards were pinned to LB agar plates using a sterile 96 pin tool. Plates were incubated overnight at 37° C. Independent experiments were conducted 3 times and a representative plate is shown.

[4] = tested on: P. aeruginosa PAO1 and PA14 expressing Tsr; assay: TS susceptibility of P. aeruginosa expressing tsr in trans from pUCP20; type: cell-based, Pseudomonas aeruginosa; conditions: VBMM
Method: A) Growth of PAO1; B) Growth of PA14. Each assay was performed at least 3 times in triplicate; **** p<0.0001.
The tsr gene from pIJ6902 was PCR-amplified using primers 5′[…]-3′ and 5′[…]-3′. Both the PCR product and pUCP20 vector were digested with SmaI and HindIII, gel-purified, and ligated at a 1:3 molar ratio using T4 DNA ligase. The ligated DNA was transformed into E. coli DH5a and transformants selected on LB agar containing 100 μg/mL ampicillin and 5-bromo-4-chloro-3-indolyl-β-D-galactopyranoside for blue-white selection. Plasmids from white colonies were purified using a GeneJet Plasmid Miniprep kit (Thermo Scientific) following the manufacturer's protocols. After verification by restriction digest and DNA sequencing, pUCP20 and pUCP20-tsr were each introduced into P. aeruginosa PAO1 and PA14 by electroporation. Transformants were selected on LB agar containing 200 μg/mL carbenicillin.

[5] = PA14, strain chtA::Mar2xT7 (PA4675)
[6] = PA14, strain fithA::Mar2xT7 (PA4516)
[7] = PA14, strain fiuA::Mar2xT7 (PA0470)
[8] = PA14, strain foxA::Mar2xT7 (PA2466)
[9] = PA14, strain fptA::Mar2xT7 (PA4221)
[10] = PA14, strain fpvA fpvB::Mar2xT7 (PA2398, PA4168)
[11] = PA14, strain fpvA fpvB::Mar2xT7 + pUCP20-fpvB
[12] = PA14, strain fpvA fpvB::Mar2xT7 + pUCP20
[13] = PA14, strain fpvA::Mar2xT7 (PA2398)
[14] = PA14, strain fpvB::Mar2xT7 (PA4168)
[15] = PA14, strain hasR::Mar2xT7 (PA3408)
[16] = PA14, strain pfeA::Mar2xT7 (PA2688)
[17] = PA14, strain phuR::Mar2xT7 (PA4710)
[18] = PA14, strain pirA::Mar2xT7 (PA0931)
[19] = PA14, strain piuA::Mar2xT7 (PA4514)
[20] = PA14, strain pvdA::Mar2xT7 (PA2386)

Q: For `C=C(NC(=O)C(=C)NC(=O)c1csc(C2=N[C@@H]3c4csc(n4)[C@H]4NC(=O)c5csc(n5)[C@H]([C@](C)(O)[C@@H](C)O)NC(=O)[C@H]5CSC(=N5)/C(=C/C)NC(=O)[C@H]([C@@H](C)O)NC(=O)c5csc(n5)[C@]3(CC2)NC(=O)[C@H](C)NC(=O)C(=C)NC(=O)[C@H](C)NC(=O)[C@H]([C@@H](C)CC)N[C@@H]2C=Cc3c([C@H](C)O)cc(nc3[C@H]2O)C(=O)O[C@@H]4C)n1)C(N)=O` [TS, thiostrepton], which “susceptibility of A. baumannii strain C0286” value [1] is on record?
A: resistant

Q: And the activity at 5 µM ([1]; Acinetobacter baumannii, 5 μM TS, 6 of 10 strains, read-out: growth, % of control)?
A: ≤ 50%

Q: And the MIC [2]?
A: ≥ 5 µM

Q: And the “susceptibility to TS in Mueller-Hinton broth” value ([3]; P. aeruginosa PA14, nutrient-rich MHB versus 10:90)?
A: reduced susceptibility

Q: And the MIC ([3]; PA14, strain PA14 (wild type))?
A: 0.6 µM (≈ 0.999 µg/mL)

Q: What about the IC50 ([3]; PA14, strain PA14 (wild type)) of the same compound?
A: 0.26 µg/mL (≈ 0.156 µM)

Q: And the MIC ([3]; PA14, strain PA0151::Mar2xT7)?
A: 0.45 µM (≈ 0.749 µg/mL)

Q: And the IC50 ([3]; PA14, strain PA0151::Mar2xT7)?
A: 0.26 µg/mL (≈ 0.156 µM)

Q: What about the MIC ([3]; PA14, strain PA1322::Mar2xT7) of the same compound?
A: 0.41 µM (≈ 0.683 µg/mL)

Q: What about the IC50 ([3]; PA14, strain PA1322::Mar2xT7) of the same compound?
A: 0.26 µg/mL (≈ 0.156 µM)

Q: What about the MIC ([3]; PA14, strain PA4837::Mar2xT7) of the same compound?
A: 0.41 µM (≈ 0.683 µg/mL)

Q: And the IC50 ([3]; PA14, strain PA4837::Mar2xT7)?
A: 0.26 µg/mL (≈ 0.156 µM)

Q: What about the MIC [3, 5] of the same compound?
A: 0.36 µM (≈ 0.599 µg/mL)

Q: What about the IC50 [3, 5] of the same compound?
A: 0.59 µg/mL (≈ 0.354 µM)

Q: What about the MIC [3, 6] of the same compound?
A: 0.5 µM (≈ 0.832 µg/mL)

Q: What about the IC50 [3, 6] of the same compound?
A: 0.26 µg/mL (≈ 0.156 µM)

Q: What about the MIC [3, 7] of the same compound?
A: 0.36 µM (≈ 0.599 µg/mL)

Q: What about the IC50 [3, 7] of the same compound?
A: 0.26 µg/mL (≈ 0.156 µM)

Q: And the MIC [3, 8]?
A: 0.6 µM (≈ 0.999 µg/mL)

Q: And the IC50 [3, 8]?
A: 0.26 µg/mL (≈ 0.156 µM)

Q: What about the MIC [3, 9] of the same compound?
A: 0.45 µM (≈ 0.749 µg/mL)

Q: What about the IC50 [3, 9] of the same compound?
A: 0.26 µg/mL (≈ 0.156 µM)

Q: What about the MIC [3, 10] of the same compound?
A: 7.5 µM (≈ 12.5 µg/mL)

Q: And the IC50 [3, 10]?
A: 6.9 µg/mL (≈ 4.14 µM)

Q: What about the MIC [3, 11] of the same compound?
A: 2.5 µM

Q: And the IC50 [3, 11]?
A: 2.8 µg/mL

Q: And the MIC [3, 12]?
A: 7.5 µM

Q: What about the IC50 [3, 12] of the same compound?
A: 4.2 µg/mL

Q: What about the MIC [3, 13] of the same compound?
A: 7.5 µM (≈ 12.5 µg/mL)

Q: What about the IC50 [3, 13] of the same compound?
A: 3.7 µg/mL (≈ 2.22 µM)

Q: What about the MIC [3, 14] of the same compound?
A: 1.3 µM (≈ 2.16 µg/mL)

Q: What about the IC50 [3, 14] of the same compound?
A: 1.8 µg/mL (≈ 1.08 µM)

Q: What about the MIC [3, 15] of the same compound?
A: 0.6 µM (≈ 0.999 µg/mL)

Q: And the IC50 [3, 15]?
A: 0.35 µg/mL (≈ 0.21 µM)

Q: What about the MIC [3, 16] of the same compound?
A: 0.82 µM (≈ 1.37 µg/mL)

Q: What about the IC50 [3, 16] of the same compound?
A: 0.26 µg/mL (≈ 0.156 µM)

Q: What about the MIC [3, 17] of the same compound?
A: 0.21 µM (≈ 0.35 µg/mL)

Q: And the IC50 [3, 17]?
A: 0.26 µg/mL (≈ 0.156 µM)

Q: What about the MIC [3, 18] of the same compound?
A: 0.6 µM (≈ 0.999 µg/mL)

Q: And the IC50 [3, 18]?
A: 0.35 µg/mL (≈ 0.21 µM)

Q: What about the MIC [3, 19] of the same compound?
A: 0.36 µM (≈ 0.599 µg/mL)

Q: What about the IC50 [3, 19] of the same compound?
A: 0.35 µg/mL (≈ 0.21 µM)

Q: What about the MIC [3, 20] of the same compound?
A: 0.21 µM (≈ 0.35 µg/mL)

Q: And the IC50 [3, 20]?
A: 0.26 µg/mL (≈ 0.156 µM)

Q: What about the “mode of activity of compound alone” value (P. aeruginosa PA14) of the same compound?
A: bacteriostatic

Q: What about the “resistance to TS compared to vector-only control” value ([4]; PA14 expressing tsr in trans (pUCP20-tsr)) of the same compound?
A: significantly increased

Q: What about the “TS concentration up to which the strain was resistant” value ([4]; PAO1 expressing tsr in trans (pUCP20-tsr)) of the same compound?
A: 10 µM
